≈ marks a conversion by molar mass, not a printed value. Read-outs that look alike come from different tables or passages of the source.
Columns and labels:
Test in all cases: in vitro antibacterial activity, agar plate dilution method
Assay type in all cases: cell-based
[1] = system: P. vulgaris No. 33*
Method: (§1) Now, the in vitro antibacterial activities of the compounds of the present invention against various microorganisms, were measured by the following agar plate dilution method.
(§2) One platinum loopfull of each test microorganism incubated overnight in Mueller Hinton broth, was inoculated to Mueller Hinton agar (MH agaer). Such culture media containing various antibiotics in various concentrations were prepared. After incubation at 37° C. for 16 hours, the minimum inhibitory concentrations (MIC μg/ml) were measured.

[2] = system: E. coli NIHJ JC2; conditions: 10^6 CFU/ml, Mueller Hinton agar, 37° C., 16 hours
Method: as §1, §2

[3] = system: Ps. cepacia 23
Method: as §1, §2

[4] = system: P. vulgaris HX-19; conditions: 10^6 CFU/ml, Mueller Hinton agar, 37° C., 16 hours
Method: as §1, §2

[5] = system: E. coli GN5482*
Method: as §1, §2

[6] = system: E. cloacae 963
Method: as §1, §2

[7] = system: A. calcoaceticus No. 4
Method: as §1, §2

[8] = system: E. cloacae Nek 39*
Method: as §1, §2

[9] = system: S. marcescens IAM 1184
Method: as §1, §2

[10] = system: Ps. aeruginosa AKR17
Method: as §1, §2

[11] = system: K. oxytoca GN10650*
Method: as §1, §2

[12] = system: Ps. aeruginosa AK 109
Method: as §1, §2

[13] = system: S. marcescens No. 16-2*
Method: as §1, §2

[14] = system: K. pneumoniae PC1-602
Method: as §1, §2

[15] = system: K. pneumoniae No. 42*
Method: as §1, §2

[16] = system: E. coli CSH2(RK1)*; conditions: Escherichia coli, 16 h
Method: as §1, §2

[17] = system: M. morganii GN5407*
Method: as §1, §2

[18] = system: S. aureus 209P NIHJ-JC1
Method: as §1, §2

[19] = system: E. coli CSH(RE45)*; conditions: 10^6 CFU/ml, β-Lactamase-producing strain, 37° C., 16 hours
Method: as §1, §2

[20] = system: Ps. aeruginosa IFO3445
Method: as §1, §2

[21] = Escherichia coli, NIHJJC2, read-out: MIC
[22] = Proteus vulgaris, HX19, read-out: MIC
[23] = Enterobacter cloacae, 963, 16 h
[24] = Acinetobacter calcoaceticus, NO.4, 10^6 CFU/ml, Mueller Hinton agar, 37° C., 16 hours, read-out: MIC
[25] = Serratia marcescens, IAM1184, 10^6 CFU/ml, Mueller Hinton agar, 37° C., 16 hours, read-out: MIC
[26] = Pseudomonas aeruginosa, AKR17, 10^6 CFU/ml, Mueller Hinton agar, 37° C., 16 hours, read-out: MIC
[27] = Klebsiella oxytoca, GN10650, 16 h
[28] = Pseudomonas aeruginosa, AK109, 16 h
[29] = Klebsiella pneumoniae, PC1602, 10^6 CFU/ml, Mueller Hinton agar, 37° C., 16 hours, read-out: MIC
[30] = Klebsiella pneumoniae, 10^6 CFU/ml, β-Lactamase-producing strain, 37° C., 16 hours, read-out: MIC
[31] = Morganella morganii, GN5407, 10^6 CFU/ml, β-Lactamase-producing strain, 37° C., 16 hours, read-out: MIC
[32] = Escherichia coli, read-out: MIC
[33] = Pseudomonas aeruginosa, IFO3445, 16 h
[34] = Proteus vulgaris, 10^6 CFU/ml, β-Lactamase-producing strain, 37° C., 16 hours, read-out: MIC
[35] = Burkholderia cepacia, 23, 10^6 CFU/ml, Mueller Hinton agar, 37° C., 16 hours, read-out: MIC
[36] = Enterobacter cloacae, 10^6 CFU/ml, β-Lactamase-producing strain, 37° C., 16 hours, read-out: MIC
[37] = Pseudomonas aeruginosa, AK109, 10^6 CFU/ml, Mueller Hinton agar, 37° C., 16 hours, read-out: MIC
[38] = Serratia marcescens, 10^6 CFU/ml, β-Lactamase-producing strain, 37° C., 16 hours, read-out: MIC
[39] = Morganella morganii, GN5407, 16 h
[40] = Staphylococcus aureus, 10^6 CFU/ml, Mueller Hinton agar, 37° C., 16 hours, read-out: MIC
[41] = Acinetobacter calcoaceticus, NO.4, 16 h
[42] = Serratia marcescens, IAM1184, 16 h
[43] = Pseudomonas aeruginosa, AKR17, 16 h
[44] = 10^6 CFU/ml, β-Lactamase-producing strain, 37° C., 16 hours
[45] = 10^6 CFU/ml, Mueller Hinton agar, 37° C., 16 hours

Compound | MIC ([1]; Proteus vulgaris, 16 h) [µg/mL] | MIC [2, 21] [µg/mL] | MIC [4, 22] [µg/mL] | MIC ([5]; Escherichia coli, GN5482, 16 h) [µg/mL] | MIC [6, 23] [µg/mL] | MIC [7, 24] [µg/mL] | MIC ([8]; Enterobacter cloacae, 16 h) [µg/mL] | MIC [9, 25] [µg/mL] | MIC [10, 26] [µg/mL] | MIC [11, 27] [µg/mL] | MIC [12, 28] [µg/mL] | MIC ([13]; Serratia marcescens, 16 h) [µg/mL] | MIC [14, 29] [µg/mL] | MIC [16] [µg/mL] | MIC [19, 32] [µg/mL] | MIC [20, 33] [µg/mL] | MIC [3, 35] [µg/mL] | MIC ([15]; Klebsiella pneumoniae, 16 h) [µg/mL] | MIC [17, 39] [µg/mL] | MIC [18, 40] [µg/mL] | further results
C=C(O/N=C(\C(=O)N[C@@H]1C(=O)N2C(C(=O)O)=C(CSc3ncc(-c4ccc(O)c(O)c4)o3)CS[C@H]12)c1csc(N)n1)C(=O)O [Example 14, disodium 7β-[2-(2-aminothiazol-4-yl)-2-(1-carboxylato-1-vinyloxyimino)acetamido]-3-[5-(3,4-dihydroxyphenyl)oxazol-2-yl]thiomethyl-3-cephem-4-carboxylate (syn-isomer)] | 0.025 | 0.78 | < 0.006 | 1.56 | 0.39 | 0.2 | 0.1 | 0.05 | 3.12 | 0.1 | 0.78 | 0.39 | < 0.006 | 0.0125 | 0.025 | 0.78 |  |  |  |  | MIC ([3]; Burkholderia cepacia, 23, 16 h): 0.0125 µg/mL; MIC [15, 30]: 0.05 µg/mL; MIC [17, 31]: 0.05 µg/mL; MIC ([18]; Staphylococcus aureus, 16 h): 6.25 µg/mL
C=C(O/N=C(\C(=O)N[C@@H]1C(=O)N2C(C(=O)O)=C(C[n+]3ccc(CS(=O)(=O)[O-])cc3)CS[C@H]12)c1csc(N)n1)C(=O)O [Example 7, 7β-[2-(2-aminothiazol-4-yl)-2-(1-carboxy-1-vinyloxyimino]acetamido]-3-(4-sulfonatomethyl-1-pyridinio)methyl-3-cephem-4-carboxylic acid (syn-isomer)] |  | 0.1 (≈ 0.16 µM) | 0.0125 (≈ 0.02 µM) | 1.56 (≈ 2.5 µM) | 0.1 (≈ 0.16 µM) | 50 (≈ 80 µM) |  | 0.0125 (≈ 0.02 µM) | > 100 | 0.39 (≈ 0.624 µM) |  |  |  | 0.2 (≈ 0.32 µM) | 0.05 (≈ 0.08 µM) |  | 12.5 (≈ 20 µM) | 0.39 (≈ 0.624 µM) | 0.025 (≈ 0.04 µM) | 25 (≈ 40 µM) | MIC [1, 34]: 0.0125 µg/mL (≈ 0.02 µM); MIC [8, 36]: 3.12 µg/mL (≈ 4.99 µM); MIC [12, 37]: 25 µg/mL (≈ 40 µM); MIC [13, 38]: 3.12 µg/mL (≈ 4.99 µM); MIC ([14]; Klebsiella pneumoniae, PC1602, 16 h): 0.025 µg/mL (≈ 0.04 µM); MIC ([20]; Pseudomonas aeruginosa, IFO3445, 10^6 CFU/ml, Mueller Hinton agar, 37° C., 16 hours, read-out: MIC): 3.12 µg/mL (≈ 4.99 µM)
C=C(O/N=C(\C(=O)N[C@@H]1C(=O)N2C(C(=O)O)=C(CSc3nnc(-c4ccc(O)c(O)c4)s3)CS[C@H]12)c1csc(N)n1)C(=O)O [Example 13, disodium 7β-[2-(2-aminothiazol-4-yl)-2-(1-carboxylato-1-vinyloxyimino)acetamido]-3-[5-(3,4-dihydroxyphenyl)-1,3,4-thiadiazol-2-yl]thiomethyl-3-cephem-4-carboxylate (syn-isomer)] | 0.025 | 0.2 | < 0.006 | 0.2 | 0.05 |  | 0.05 |  |  | 0.025 | 0.1 | 0.05 | 0.0125 | < 0.006 | < 0.006 | 0.78 | < 0.006 |  | 0.1 | 3.12 | MIC [7, 41]: 0.1 µg/mL; MIC [9, 42]: 0.025 µg/mL; MIC [10, 43]: 1.56 µg/mL; MIC [15, 30]: 0.0125 µg/mL
C=C(O/N=C(\C(=O)N[C@@H]1C(=O)N2C(C(=O)O)=C(COC(C)=O)CS[C@H]12)c1csc(N)n1)C(=O)O [Example 17, disodium 7β-[2-(2-aminothiazol-4-yl)-2-(1-carboxylato-1-vinyloxyimino)acetamido]cephalosporanate (syn-isomer)] | 0.1 | 0.1 | < 0.006 | 1.56 | 0.1 | 25 |  | 0.0125 | > 100 | 0.05 | 6.25 |  | 0.0125 | 0.025 | 0.1 | 6.25 |  | 0.2 | 0.025 | 12.5 | MIC ([3]; Burkholderia cepacia, 23, 16 h): 1.56 µg/mL; MIC [8, 36]: 3.12 µg/mL; MIC [13, 38]: 3.12 µg/mL
C=C(O/N=C(\C(=O)N[C@@H]1C(=O)N2C(C(=O)O)=C(CSc3nc(-c4ccc(OC(C)=O)c(OC(C)=O)c4)c(CC(=O)O)s3)CS[C@H]12)c1csc(N)n1)C(=O)O [Example 16, trisodium 3-[4-(3,4-diacetoxyphenyl)-5-carboxylatomethylthiazol-2-yl]thiomethyl-7β-[2-(2-aminothiazol-4-yl)-2-(1-carboxylato-1-vinyloxyimino)acetamido]-3-cephem-4-carboxylate (syn-isomer)] | 0.025 | 0.78 | < 0.006 | 0.78 | 0.39 |  | 0.2 |  |  | 0.1 | 0.78 | 0.78 | < 0.006 | 0.05 | 1.56 | 0.78 | < 0.006 | 0.1 | 0.05 | 12.5 | MIC [7, 41]: 0.2 µg/mL; MIC [9, 42]: 0.05 µg/mL; MIC [10, 43]: 1.56 µg/mL
C=C(O/N=C(\C(=O)N[C@@H]1C(=O)N2C(C(=O)[O-])=C(C[n+]3cccc(C(N)=O)c3)CS[C@H]12)c1csc(N)n1)C(=O)O [Example 4, 7β-[2-(2-aminothiazol-4-yl)-2-(1-carboxy-1-vinyloxyimino)acetamido] vinyloxyimino)acetamido]-3-(3-carbamoyl-1-pyridinio)methyl-3-cephem-4-carboxylate (syn-isomer)] |  | 0.05 (≈ 0.0872 µM) | 0.0125 (≈ 0.0218 µM) | 0.2 (≈ 0.349 µM) | 0.05 (≈ 0.0872 µM) | 3.12 (≈ 5.44 µM) | 0.2 (≈ 0.349 µM) | 0.0125 (≈ 0.0218 µM) | > 100 | 0.1 (≈ 0.174 µM) |  | 0.78 (≈ 1.36 µM) | 0.0125 (≈ 0.0218 µM) | 0.025 (≈ 0.0436 µM) | 0.025 (≈ 0.0436 µM) | 1.56 (≈ 2.72 µM) | 3.12 (≈ 5.44 µM) | 0.1 (≈ 0.174 µM) |  |  | MIC [1, 34]: 0.0125 µg/mL (≈ 0.0218 µM); MIC [12, 37]: 12.5 µg/mL (≈ 21.8 µM); MIC [17, 31]: 0.0125 µg/mL (≈ 0.0218 µM); MIC ([18]; Staphylococcus aureus, 16 h): 1.56 µg/mL (≈ 2.72 µM)
C=C(ON=C(C(=O)N[C@@H]1C(=O)N2C(C(=O)[O-])=C(C[n+]3ccccc3)CS[C@H]12)c1csc(N)n1)C(=O)O (single isomer, unassigned) [Example 1, 7β-[2-(2-aminothiazol-4-yl)-2-(1-carboxy-1-vinyloxyimino)acetamido]-3-(1-pyridinio)methyl-3-cephem-4-carboxylate (syn-isomer)] |  |  |  |  |  |  |  |  |  |  |  |  |  |  |  |  |  |  |  |  | MIC [1, 44]: 0.0125 µg/mL (≈ 0.0236 µM); MIC [2]: 0.025 µg/mL (≈ 0.0471 µM); MIC [3, 45]: 3.12 µg/mL (≈ 5.88 µM); MIC [4]: 0.0125 µg/mL (≈ 0.0236 µM); MIC [5, 44]: 0.2 µg/mL (≈ 0.377 µM); MIC [6, 45]: 0.025 µg/mL (≈ 0.0471 µM); MIC [7, 45]: 12.5 µg/mL (≈ 23.6 µM); MIC [8, 44]: 0.39 µg/mL (≈ 0.735 µM); MIC [9, 45]: < 0.006 µg/mL; MIC [10, 45]: > 100 µg/mL; MIC [11, 44]: 0.1 µg/mL (≈ 0.188 µM); MIC [12, 45]: 1.56 µg/mL (≈ 2.94 µM); MIC [13, 44]: 0.78 µg/mL (≈ 1.47 µM); MIC [14, 45]: < 0.006 µg/mL; MIC [15, 44]: 0.1 µg/mL (≈ 0.188 µM); MIC [17, 44]: 0.0125 µg/mL (≈ 0.0236 µM); MIC [18, 45]: 3.12 µg/mL (≈ 5.88 µM); MIC [19]: 0.025 µg/mL (≈ 0.0471 µM); MIC [20, 45]: 0.78 µg/mL (≈ 1.47 µM)
